# Ends that are not written are not given here.
# How the values were obtained:
# [1] = test system: TRHR with OxR2 (thyrotropin releasing hormone receptor/orexin receptor hetero-dimer/-oligomer); experiment: eBRET/BRET between TRHR/Rluc (or Rluc8) and labelled beta-arrestin with OxR2 co-expressed as IG3; assay type: cell-based
# Procedure: (§1) eBRET measurements at 37 C were carried out on HEK293 cells transiently co-expressing TRHR/Rluc and barr2/Venus with either pcDNA3, orexin receptor 2 (OxR2), CXC chemokine receptor 2 (CXCR2), hemagglutin epitope-tagged melanocortin receptor 3 or 4 (HA-MC3R or HA-MC4R), or dopamine D2 receptor long form (D2LR) or short form (D2SR) following the treatment of each with their respective ligands.
# (§2) Phosphate-buffered saline (PBS) was used as a vehicle control.
# (§3) Where antagonist was not preincubated, cells were treated with PBS instead for the same amount of time.
# as §2
# Sigmoidal dose response curves were plotted using Prism (GraphPad), either assuming a Hill slope of 1 or allowing for variable slope.
# Phosphate-buffered saline (PBS) was added to the first two rows and the last two rows of the 96-well plate (48 wells in total) as a vehicle control. […] Data presented as fluorescence/luminescence.
# (§4) Cells were seeded in 6-well plates at a density of approximately 630,000 cells/well (HEK293FT) or approximately 150,000 cells/well (COS-7) and maintained at 37° C., 5% CO2 in Complete Media (DMEM containing 0.3 mg/ml glutamine, 100 IU/ml penicillin and 100 μg/ml streptomycin (Gibco)) supplemented with 10% fetal calf serum (FCS; Gibco). Transient transfections were carried out 24 h after seeding using GeneJuice (Novagen) or Metafectene (Biontex) according to manufacturer instructions. 24 h post-transfection, cells were washed with PBS, detached using 0.05% trypsin/0.53 mM EDTA, resuspended in HEPES-buffered phenol red free Complete Media containing 5% FCS and added to a poly-L-lysine-coated white microplate (Nunc). 48 h post-transfection, eBRET assays were carried out following pre-incubation of cells with EnduRen™ (Promega) at a final concentration of 30-40 μM, at 37° C., 5% CO2 for 2 h. For original BRET studies, the HEPES-buffered phenol red free Complete Media was replaced with PBS and coelenterazine h (Molecular Probes) added to a final concentration of 5 μM immediately prior to commencing the assay. […] Filtered light emissions were sequentially measured for 3-5 s in each of the ‘donor wavelength window’ (400-475 nm) and ‘acceptor wavelength window’ (>500 nm for EGFP or 520-540 nm for EYFP, Topaz (TYFP) or Venus). The BRET signal observed between interacting proteins is normalized by subtracting the background BRET ratio. […] In the following examples, the first calculation will be used, unless the signal is described as the ligand-induced BRET ratio'.
# In this case, data are shown as ‘fluorescence/luminescence’ being the ratio of light emission through the ‘acceptor wavelength window’ over the 400-475 nm emission for a particular cell sample. Unless otherwise stated, BRET signals were measured in 96-well microplates.
# TRHR with OxR1 = experiment: eBRET between TRHR/Rluc and barr2/Venus with OxR1 as IG3; assay type: cell-based
# Procedure: as §3, §4
# Cells not pretreated with antagonist were pretreated with PBS instead for the same amount of time.
# [2] = target: T1, CC chemokine receptor 5 (CCR5) (Homo sapiens, UniProt P51681); experiment: eBRET between CCR5(5)TYFP and barr2/Rluc without IG3 (pcDNA3); assay type: cell-based; conditions: CCR5(5)TYFP + barr2/Rluc + pcDNA3
# T1 construct: expressed in transfected cells; host or cells: HEK293
# Procedure: (§5) Ligand treatments were either monocyte chemoattractant protein 1 (MCP1; CCR2 selective ligand), macrophage inflammatory protein 1b (MIP1b; CCR5 selective ligand), or both MCP1 and MIP1b combined. Phosphate-buffered saline (PBS) was used as a vehicle control.
# (§6) Cells were seeded in 6-well plates at a density of approximately 630,000 cells/well (HEK293FT) or approximately 150,000 cells/well (COS-7) and maintained at 37° C., 5% CO2 in Complete Media (DMEM containing 0.3 mg/ml glutamine, 100 IU/ml penicillin and 100 μg/ml streptomycin (Gibco)) supplemented with 10% fetal calf serum (FCS; Gibco). Transient transfections were carried out 24 h after seeding using GeneJuice (Novagen) or Metafectene (Biontex) according to manufacturer instructions. 24 h post-transfection, cells were washed with PBS, detached using 0.05% trypsin/0.53 mM EDTA, resuspended in HEPES-buffered phenol red free Complete Media containing 5% FCS and added to a poly-L-lysine-coated white microplate (Nunc). 48 h post-transfection, eBRET assays were carried out following pre-incubation of cells with EnduRen™ (Promega) at a final concentration of 30-40 μM, at 37° C., 5% CO2 for 2 h. For original BRET studies, the HEPES-buffered phenol red free Complete Media was replaced with PBS and coelenterazine h (Molecular Probes) added to a final concentration of 5 μM immediately prior to commencing the assay. BRET measurements were taken at 37° C. using the Victor Light plate reader with Wallac 1420 software (Perkin-Elmer). Filtered light emissions were sequentially measured for 3-5 s in each of the ‘donor wavelength window’ (400-475 nm) and ‘acceptor wavelength window’ (>500 nm for EGFP or 520-540 nm for EYFP, Topaz (TYFP) or Venus). The BRET signal observed between interacting proteins is normalized by subtracting the background BRET ratio. […]
# CCR5 with CCR2 = target: T2, CCR5 with CCR2 (Homo sapiens, UniProt P41597+P51681); experiment: eBRET between CCR5(5)TYFP and barr2/Rluc with CCR2 as IG3; assay type: cell-based; conditions: CCR5(5)TYFP + barr2/Rluc + CCR2
# T2 construct: expressed in transfected cells; host or cells: HEK293
# Procedure: as §5
# BRET measurements at 37 C were carried out on HEK293 cells transiently co-expressing CCR5(5)TYFP (contains a 5 amino acid linker between CCR5 and TYFP), barr2/Rluc and CCR2 treated with increasing doses of monocyte chemoattractant protein 1 (MCP1; CCR2 selective ligand). A sigmoidal dose response curve was plotted using Prism (GraphPad) allowing for variable slope.
# Cells were seeded in 6-well plates at a density of approximately 630,000 cells/well (HEK293FT) or approximately 150,000 cells/well (COS-7) and maintained at 37° C., 5% CO2 in Complete Media (DMEM containing 0.3 mg/ml glutamine, 100 IU/ml penicillin and 100 μg/ml streptomycin (Gibco)) supplemented with 10% fetal calf serum (FCS; Gibco). […] BRET measurements were taken at 37° C. using the Victor Light plate reader with Wallac 1420 software (Perkin-Elmer). Filtered light emissions were sequentially measured for 3-5 s in each of the ‘donor wavelength window’ (400-475 nm) and ‘acceptor wavelength window’ (>500 nm for EGFP or 520-540 nm for EYFP, Topaz (TYFP) or Venus). […]
# [3] = test system: thyrotropin releasing hormone receptor (TRHR); experiment: eBRET/BRET beta-arrestin recruitment to TRHR/Rluc without IG3 (pcDNA3) in HEK293 cells; assay type: cell-based
# Procedure: as §1
# Ligand treatments were either OxA or TRH only or both OxA and TRH combined. Phosphate-buffered saline (PBS) was used as a vehicle control.
# Ligand treatments were either OxA or TRH only. Phosphate-buffered saline (PBS) was used as a vehicle control.
# BRET measurements at 37 C were carried out on HEK293 cells transiently co-expressing TRHR/Rluc, barr2/Venus and pcDNA3 with increasing doses of TRH. Sigmoidal dose response curves were plotted using Prism (Graph Pad), either assuming a Hill slope of 1 or allowing for variable slope. The EC50 and Hill slope values for the variable slope curve are included in a table in the graph.
# TRHR is IG1, Rluc is RC1, barr1 is IG2, EGFP is RC2 and OxR2 is IG3. The same amount of EGFP/barr1 (IG2-RC2) is transfected for each experiment.
# Cells were seeded in 6-well plates at a density of approximately 630,000 cells/well (HEK293FT) or approximately 150,000 cells/well (COS-7) and maintained at 37° C., 5% CO2 in Complete Media (DMEM containing 0.3 mg/ml glutamine, 100 IU/ml penicillin and 100 μg/ml streptomycin (Gibco)) supplemented with 10% fetal calf serum (FCS; Gibco). Transient transfections were carried out 24 h after seeding using GeneJuice (Novagen) or Metafectene (Biontex) according to manufacturer instructions. 24 h post-transfection, cells were washed with PBS, detached using 0.05% trypsin/0.53 mM EDTA, resuspended in HEPES-buffered phenol red free Complete Media containing 5% FCS and added to a poly-L-lysine-coated white microplate (Nunc). 48 h post-transfection, eBRET assays were carried out following pre-incubation of cells with EnduRen™ (Promega) at a final concentration of 30-40 μM, at 37° C., 5% CO2 for 2 h. For original BRET studies, the HEPES-buffered phenol red free Complete Media was replaced with PBS and coelenterazine h (Molecular Probes) added to a final concentration of 5 μM immediately prior to commencing the assay. BRET measurements were taken at 37° C. using the Victor Light plate reader with Wallac 1420 software (Perkin-Elmer). Filtered light emissions were sequentially measured for 3-5 s in each of the ‘donor wavelength window’ (400-475 nm) and ‘acceptor wavelength window’ (>500 nm for EGFP or 520-540 nm for EYFP, Topaz (TYFP) or Venus). The BRET signal observed between interacting proteins is normalized by subtracting the background BRET ratio. This can be done in one of two ways (see Pfleger et al. (2006) Cell Signal 18, 1664-1670; Pfleger et al. (2006) Nat Protoc 1, 336-344): 1) the ratio of light emission through the ‘acceptor wavelength window’ over the 400-475 nm emission for a cell sample containing only the donor construct is subtracted from the same ratio for a sample containing the interacting acceptor and donor fusion proteins; 2) the ratio of light emission through the ‘acceptor wavelength window’ over the 400-475 nm emission for a cell sample treated with vehicle is subtracted from the same ratio for a second aliquot of the same cell sample treated with ligand. In the following examples, the first calculation will be used, unless the signal is described as the ligand-induced BRET ratio'.
# [4] = test system: TRHR335 (truncated TRHR) with OxR2; experiment: eBRET/BRET between TRHR335/Rluc and labelled beta-arrestin with OxR2 as IG3; assay type: cell-based; conditions: TRHR335/Rluc + EGFP/barr1 + OxR2
# TRHR335 with TRHR = experiment: eBRET between TRHR335/Rluc and EGFP/barr1 with TRHR as IG3; assay type: cell-based
# Procedure: Ligand treatments were either OxA or TRH only.
# as §6, with “For original BRET studies, the HEPES-buffered phenol red free Complete Media was replaced with PBS and coelenterazine h (Molecular Probes) added to a final concentration of 5 μM immediately prior to commencing the assay.” left out, “Venus).” for “Venus). The BRET signal observed between interacting proteins is normalized by subtracting the background BRET ratio.”
# [5] = cited from earlier work
# [6] = 10^−6M antagonist approx. 40 minutes before 10^−6M OxA
# [7] = 10^−6M antagonist approx. 40 minutes before 10^−6M TRH and OxA
# T1 sequence (P51681 whole entry, species assumed): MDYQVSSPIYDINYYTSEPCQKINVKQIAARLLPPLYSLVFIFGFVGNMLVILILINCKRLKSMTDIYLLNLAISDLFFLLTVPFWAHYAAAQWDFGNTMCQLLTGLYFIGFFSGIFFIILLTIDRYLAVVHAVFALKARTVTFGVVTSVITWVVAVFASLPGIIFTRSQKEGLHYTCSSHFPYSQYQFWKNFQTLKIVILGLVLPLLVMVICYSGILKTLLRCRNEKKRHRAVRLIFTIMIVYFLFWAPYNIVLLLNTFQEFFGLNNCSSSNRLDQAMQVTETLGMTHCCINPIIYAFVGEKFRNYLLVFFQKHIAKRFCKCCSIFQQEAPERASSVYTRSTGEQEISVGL
# T2 sequence (P51681 whole entry, species assumed): as above
# T2 sequence (P41597 whole entry, species assumed): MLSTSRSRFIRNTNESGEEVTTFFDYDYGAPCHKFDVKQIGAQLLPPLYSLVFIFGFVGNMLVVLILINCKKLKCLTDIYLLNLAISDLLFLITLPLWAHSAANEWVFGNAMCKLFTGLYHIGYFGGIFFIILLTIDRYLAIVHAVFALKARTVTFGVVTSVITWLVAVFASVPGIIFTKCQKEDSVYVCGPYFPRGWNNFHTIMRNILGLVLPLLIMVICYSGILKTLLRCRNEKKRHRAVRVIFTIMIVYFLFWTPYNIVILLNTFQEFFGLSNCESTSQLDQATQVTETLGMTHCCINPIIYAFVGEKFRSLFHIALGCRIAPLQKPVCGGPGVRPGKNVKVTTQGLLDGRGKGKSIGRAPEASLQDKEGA
molecule,measurement,setting,value
"Cc1nc2ccc(NC(=O)Nc3ccnc4cccnc34)cc2o1.Cl [SB-334867-A, 1-(2-methylbenzoxazol-6-yl)-3-[1,5]naphthyridin-4-yl urea hydrochloride]",effect of antagonist pretreatment on OxA-induced eBRET signal,[1]; [6],not affected
same,effect of antagonist pretreatment on TRH + OxA-induced eBRET signal,[1]; [7],did not differ
same,effect of antagonist pretreatment on OxA-induced eBRET signal,TRHR with OxR1; [6],reduced
same,effect of antagonist pretreatment on TRH + OxA-induced eBRET signal,TRHR with OxR1; [7],reduced
MCP1: Monocyte chemoattractant protein 1 (CCR2 selective ligand),eBRET signal,[2],no eBRET signal
same,effect of MCP1 addition on MIP1b-induced eBRET signal,[2],made no difference
same,eBRET signal,CCR5 with CCR2,able to produce a signal
"OxA: Orexin A, orexin receptor modulator used as IG3 ligand (QPLPDCCRQKTCSCRLYELLHGAGNHAAGILTL; not fully specified; ends and bridges not checked; UniProt O43612 34-66, looked up)",cumulative eBRET signal,"[3]; TRHR/Rluc + EGFP/barr1, 0 μg OxR2 DNA/well, 10^−6M OxA, 83 mins",no signal was recorded
same,effect of OxA on TRH-induced eBRET signal,"[3]; TRHR/Rluc + EGFP/barr1 or EGFP/barr2, no OxR2, OxA present with TRH",no difference
same,eBRET signal,"[3]; TRHR/Rluc + EGFP/barr (barr1, barr2 or barr1R169E), no OxR2",No increase in eBRET signal above baseline
same,eBRET signal,"[1]; Example 3: TRHR/Rluc + barr2/Venus + OxR2, 10^−6M OxA, PBS pretreatment",eBRET signal was observed
same,time to reach eBRET signal,"[1]; HEK293, TRHR/Rluc + barr2/Venus + OxR2, ligand 10^−6M",up to 30 minutes
same,eBRET signal,"[1]; HEK293, TRHR/Rluc + barr2/Venus + OxR2, ligand 10^−6M, 37 C",0.07-0.08
same,time to eBRET signal plateau,[1]; TRHR/Rluc + EGFP/barr1R169E + OxR2 (lower signal than EGFP/barr1),≤ 20 min
same,time to eBRET signal plateau,[1]; TRHR/Rluc + EGFP/barr1 or EGFP/barr2 + HA-OxR2,more than 10 minutes
same,time to eBRET signal plateau,[1]; TRHR/Rluc + EGFP/barr1 or EGFP/barr2 + OxR2,more than 10 minutes
same,dose-response Hill slopes,"[1]; TRHR/Rluc + barr2/Venus + OxR2, coelenterazine h and EnduRen, FIG. 12",greater than 1
same,eBRET signal,"TRHR with OxR1; TRHR/Rluc + barr2/Venus + OxR1, agonist 10^−6M",small eBRET signal
same,time to eBRET signal plateau,[4],about 20 minutes
same,eBRET signal,TRHR335 with TRHR,no eBRET signal above baseline
"CN1C(=O)C[C@@H](C(=O)N[C@@H](Cc2c[nH]cn2)C(=O)N2CCC[C@H]2C(N)=O)NC1=O.O.O.O.O [TA-0910, (−)-N—[(S)-hexahydro-1-methyl-2,6-dioxo-4-pyrimidinylcarbonyl]-L-histidyl-L-prolinamide tetrahydrate]",slow wave sleep (SWS) and rapid eye movement (REM) sleep,[5]; dose- and time-dependent manner,significantly reduced
same,cataplexy,[5]; in most of the animals studied,completely suppressed
"MIP1b: Macrophage inflammatory protein 1b (CCR5 selective ligand) (protein, UniProt P13236 24-92, looked up) C-C motif chemokine 4: APMGSDPPTACCFSYTARKLPRNFVVDYYETSSLCSQPAVVFQTKRSKQVCADPSESWVQEYVYDLELN",eBRET signal,[2],robust signal
same,eBRET signal,CCR5 with CCR2,produced a signal
